US20140086961A1, “USE OF CYCLODEXTRINS IN DIETS, WATER OR VACCINE ADJUVANTS TO BOOST THE IMMUNE SYSTEM OF FISH” (priority 2011, published 2014)

What was measured:
[1] = test system: IL-1B and IL-6 gene expression in rainbow trout macrophages; assay: RT-PCR of IL-1B and IL-6 in trout macrophages with different cyclodextrins (FIG. 4); assay type: cell-based; conditions: trout macrophages stimulated 30 minutes to 24 hours
Protocol: Trout macrophages were stimulated for 30 minutes to 24 hours with heptakis (2,6-di-O-methyl)-β-cyclodextrin (Heptakis); methyl-β-cyclodextrin (Methyl β); beta cyclodextrin (β CyD); 2-hydroxypropyl-β-cyclodextrin (Hydroxy β); 2-hydroxypropyl-α-cyclodextrin (Hydroxy α); gamma cyclodextrin (γ CyD). RNA was extracted and RT-PCR conducted with IL-1B and IL-6. 18s was a RNA loading control. Molecular weight standard in first lane
Since there are various forms of cyclodextrins with different side groups that appear to have different effects in mammalian macrophages, the effects of different cyclodextrins on gene expression in the trout macrophage cell cultures were tested. Trout macrophages were stimulated for 30 minutes to 24 hours with heptakis (2,6-di-O-methyl)-β-cyclodextrin (Heptakis); methyl-β-cyclodextrin (Methyl β); beta cyclodextrin (β CyD); 2-hydroxypropyl-β-cyclodextrin (Hydroxy β; 2-hydroxypropyl-α-cyclodextrin (Hydroxy α); gamma cyclodextrin (γ CyD). RNA was extracted and RT-PCR conducted with IL-1B and IL-6.
From these cell experiments, it was shown that cyclodextrin could up-regulate the innate immune system and could possibly be used as an immune agent to protect fish against pathogen challenges.

zebrafish larvae [2] = assay: Larval viability during cyclodextrin treatment after first feeding; assay type: in vivo; conditions: zebrafish larvae bathed with 500 μg/mL, recorded 10 days post first feeding
Protocol: The larval viability during cyclodextrin treatment was explored. The survival during treatment was compared with normal larval growth condition after first feeding (day 5 post hatch). 6 independent batches by reproduction (84 embryos by batch) of zebrafish larvae were bathed with 0 (“Control”; normal larval growth condition) or 500 μg/mL of beta cyclodextrin (“β CyD”), alpha cyclodextrin (“α CyD”) or both (“β+α CyD”; 50/50% of each). Larval survival was recorded 10 days post first feeding ([…]) and was increased with all cyclodextrin treatments (FIG. 7).

trout macrophages = assay: QBlue Cell Viability Assay (resazurin reduction) in trout macrophages; assay type: cell-based, rainbow trout; conditions: same cells as FIG. 1, saponin positive control
From the text: High fluorescence indicates no loss in cell viability. Cells were the same ones used in FIG. 1. Saponin is a positive control since it kills cells.
A primary trout macrophage culture system was used to investigate how pathogens are recognized by the innate immune system in fish (MacKenzie et al., Developmental and Comparative Immunology 27:393-400 (2003); Iliev et al., Molecular Immunology 42:1215-1223 (2005); Iliev et al. FEBS Letters 579 (29):6519-6528 (2005)). In this system, macrophages can be stimulated by various compounds and the expression of immune genes such as interleukin 1 B (IL-1B) or tissue necrosis factor (TNF) can be assayed as a measure of the degree of inflammatory stimulation and, thus, activation of the innate immune system. The effect of nanoparticles on the immune system of trout as an indication of the possible harmful effects of these compounds on aquatic organisms was studied. This involved exposing the cultured trout macrophages to nanoparticles and looking for effects on IL-1B and interferon alpha (IFNa) gene expression. Bacterial lipopolysaccharide (LPS) was used as a positive stimulatory control. […] RNA was extracted from cells and analyzed by QPCR for IL-1B expression. […] The effect of beta cyclodextrin on any cell viability was determined using the QBlue Cell Viability Assay Kit (BioChain) and saponin as a positive control for cell death.

zebrafish larvae [3] = assay: LPS challenge of zebrafish larvae bathed with cyclodextrin; assay type: in vivo; conditions: zebrafish larvae 2 dpf, bath 67.5-500 μg/mL, then LPS 150 μg/mL Pseudomonas aeruginosa, mortality over 36 hours
Protocol: (§1) FIGS. 5A and 5B show replicates of the effects of α-cyclodextrin at various concentrations on LPS challenge. Zebrafish larvae, 2 days post-fertilization, were bathed with 0, 67.5, 125, 250 or 500 μg/mL of alpha cyclodextrin. Zebrafish larvae were then bathed with a lethal concentration (100% mortality) of LPS (150 μg/mL—Pseudomonas aeruginosa) and assessed for mortality over 36 hours. FIGS. 5A and 5B show the cumulative mortality after challenge of zebrafish larvae treated with α-cyclodextrin
as §1, with “6A” for “5A”, “6B” for “5B”, “β-cyclodextrin” for “α-cyclodextrin”, “challenge performed in replicate.” for “challenge.”, “beta” for “alpha”
To test this, zebrafish larvae, 2 days post fertilization (dpf), were bathed with 0, 67.5, 125, 250 or 500 μg/mL of beta or alpha cyclodextrin. Zebrafish larvae were then bathed with a lethal concentration (i.e., 100% mortality) of bacterial lipopolysaccharide (LPS) (150 μg/mL Pseudomonas aeurginosa). […]

[4] = test system: TNF, Mx, IL-6, IL-1B, TLR, IFN, CD18, PU1 gene expression in trout macrophages; assay: RT-PCR of immune genes in trout macrophages stimulated 24 hours (FIG. 3); assay type: cell-based, rainbow trout
Protocol: Cells were stimulated for 24 hours and RNA extracted and RT-PCR conducted with TNF (tissue necrosis factor), Mx protein, IL-6 (interleukin 6), IL-1B (interleukin 1B), TLR (toll-like receptor), IFN (interferon), CD18 (cluster of differentiation 18), and PU1 (transcription factor PU1). 18S is a RNA loading control. Molecular weight standard in first lane.
The effects of cyclodextrin on the expression of several other genes such as TNF and IL-6 that are also pro-inflammatory were studied (FIG. 3). […] Cells were stimulated for 24 hours and RNA extracted and RT-PCR conducted with TNF (tissue necrosis factor), Mx protein, IL-6 (interleukin 6), IL-1B (interleukin 1B), TLR (toll-like receptor), IFN (interferon), CD18 (cluster of differentiation 18), and PU1 (transcription factor PU1). 18S is a RNA loading control. Molecular weight standard is in the first lane.

[5] = test system: IL-1B gene expression in trout macrophages; assay: IL-1B gene expression in primary trout macrophage culture (QPCR); assay type: cell-based, rainbow trout; conditions: trout macrophages stimulated 24 hours, LPS positive control
Protocol: LPS is a positive stimulatory control. Macrophages were isolated from head kidneys of rainbow trout, plated and then stimulated with the preparations for 24 hours. RNA was extracted from cells and analyzed by QPCR for IL-1B expression. Data are means for 3 independent trials.
Standard SYBR-green based methodology was used for anti-viral and pro-inflammatory gene expression in mucosal immune system (intestine/gills/skin/spleen) to evaluate effective dose and identify the effects of β-cyclodextrins on tissue activation profiles. Briefly, 2 μg of total RNA was used for cDNA synthesis (SuperScript® III, Invitrogen) and subsequently diluted with nuclease-free water to 1 ng/μL cDNA. Gene-specific high-melting temperature primers for genes of interest were designed using NCBI/Primer-BLAST suite. […] Quantitative expression data between different times were examined by one-way ANOVA using SPSS 17 statistical software and the differences were considered significant at p<0.05.
A primary trout macrophage culture system was used to investigate how pathogens are recognized by the innate immune system in fish (MacKenzie et al., Developmental and Comparative Immunology 27:393-400 (2003); Iliev et al., Molecular Immunology 42:1215-1223 (2005); Iliev et al. FEBS Letters 579 (29):6519-6528 (2005)). […] RNA was extracted from cells and analyzed by QPCR for IL-1B expression. […]

SMILES: OC[C@H]1O[C@@H]2O[C@H]3[C@H](O)[C@@H](O)[C@@H](O[C@H]4[C@H](O)[C@@H](O)[C@@H](O[C@H]5[C@H](O)[C@@H](O)[C@@H](O[C@H]6[C@H](O)[C@@H](O)[C@@H](O[C@H]7[C@H](O)[C@@H](O)[C@@H](O[C@H]8[C@H](O)[C@@H](O)[C@@H](O[C@H]9[C@H](O)[C@@H](O)[C@@H](O[C@H]1[C@H](O)[C@H]2O)O[C@@H]9CO)O[C@@H]8CO)O[C@@H]7CO)O[C@@H]6CO)O[C@@H]5CO)O[C@@H]4CO)O[C@@H]3CO [gamma cyclodextrin]
- IL-1B expression [1]: most effective form

SMILES: OC[C@H]1O[C@@H]2O[C@H]3[C@H](O)[C@@H](O)[C@@H](O[C@H]4[C@H](O)[C@@H](O)[C@@H](O[C@H]5[C@H](O)[C@@H](O)[C@@H](O[C@H]6[C@H](O)[C@@H](O)[C@@H](O[C@H]7[C@H](O)[C@@H](O)[C@@H](O[C@H]8[C@H](O)[C@@H](O)[C@@H](O[C@H]1[C@H](O)[C@H]2O)O[C@@H]8CO)O[C@@H]7CO)O[C@@H]6CO)O[C@@H]5CO)O[C@@H]4CO)O[C@@H]3CO [beta cyclodextrin]
- larval survival versus control (zebrafish larvae [2]): increased
- cell viability (trout macrophages): No effect on viability
- protection of larvae against lethal LPS challenge (zebrafish larvae [3]): protected the larvae against the LPS
- most highly stimulated gene [4]: IL-1B
- IL-1B expression [5]: potent stimulator of inflammatory gene expression

SMILES: COC[C@H]1O[C@@H]2O[C@H]3[C@H](O)[C@@H](OC)[C@@H](O[C@H]4[C@H](O)[C@@H](OC)[C@@H](O[C@H]5[C@H](O)[C@@H](OC)[C@@H](O[C@H]6[C@H](O)[C@@H](OC)[C@@H](O[C@H]7[C@H](O)[C@@H](OC)[C@@H](O[C@H]8[C@H](O)[C@@H](OC)[C@@H](O[C@H]1[C@H](O)[C@H]2OC)O[C@@H]8COC)O[C@@H]7COC)O[C@@H]6COC)O[C@@H]5COC)O[C@@H]4COC)O[C@@H]3COC [Heptakis, heptakis (2,6-di-O-methyl)-β-cyclodextrin]
- IL-1B expression [1]: stimulated
- IL-6 expression [1]: stimulated

SMILES: OC[C@H]1O[C@@H]2O[C@H]3[C@H](O)[C@@H](O)[C@@H](O[C@H]4[C@H](O)[C@@H](O)[C@@H](O[C@H]5[C@H](O)[C@@H](O)[C@@H](O[C@H]6[C@H](O)[C@@H](O)[C@@H](O[C@H]7[C@H](O)[C@@H](O)[C@@H](O[C@H]1[C@H](O)[C@H]2O)O[C@@H]7CO)O[C@@H]6CO)O[C@@H]5CO)O[C@@H]4CO)O[C@@H]3CO [alpha cyclodextrin]
- larval survival versus control (zebrafish larvae [2]): increased
- protection of larvae against lethal LPS challenge (zebrafish larvae [3]): protected the larvae against the LPS
